Data from a melting point compilation (Tetko et al.; mined from patent text by program, amines drawn as free bases though some values may be those of a salt).

Row | Compound | melting point
1 | CC(C)C(NC(=O)NCc1cccnc1)C(=O)NC(Cc1ccccc1)C(O)C(Cc1ccccc1)NC(=O)C(NC(=O)NCc1cccnc1)C(C)C (stereo not drawn) | 238 to 239 °C
2 | C[C@@H]1O[C@@]1(Cn1ccnc1)c1ccc(F)cc1F | 73 to 76 °C
3 | Cn1cc(C#N)n(-c2ccc(Cl)cc2)c1=O | 149 to 151 °C
4 | OCc1c(-c2ccc(O)cc2)nnn1-c1ccc(C(F)(F)F)cc1Cl | 181 to 182 °C
5 | Cn1cc(CS(C)(=O)=O)c(=O)c2ccc(Cl)cc21 | 215 to 216 °C
6 | CCCCCCC(CCCn1c(CCC)nc2c(N)nc3ccccc3c21)=NO | 113 to 115 °C
7 | CCOC(=O)c1cnc2nc(C)ccc2c1OCC | 82 to 83 °C
8 | CCCCCCCCCCCCn1nnc(CCC(=O)Nc2c(C(C)C)cccc2C(C)C)n1 | 41 to 43 °C
9 | CS(=O)(=O)c1ccc(-c2sc(-c3cccs3)nc2-c2ccc(F)cc2)cc1 | 194 to 195 °C
10 | COC(=O)c1cc(S)cc(C(=O)OC)c1[N+](=O)[O-] | 117 to 119 °C
11 | Cc1cc(C)c(-c2n[nH]c(=O)c3ccccc23)c(C)c1 | 259 to 262 °C
12 | OC1(c2cccnc2N2CCCC2)CCN(CC23CC(c4ccccc42)c2ccccc23)CC1 | 249 to 253 °C
13 | C[C@@H](c1ccc(-c2c[nH]nn2)cc1)[C@](O)(Cn1cncn1)c1ccc(F)cc1F | 121 °C
14 | O[C@@H](COc1ccccc1)CN(CCc1ccc(OCc2ccccc2)cc1)C[C@@H](O)COc1ccccc1 (racemic) | 106 to 110 °C
15 | C=C1CC2C(CCC3(C)C2CCC3(O)C(=O)COC(C)=O)C2(C)CCC(=O)C=C12 (stereo not drawn) | 194 to 196 °C
16 | CNS(=O)(=O)Nc1cc(-c2nn(C)c(OC(F)F)c2Cl)c(Cl)cc1Cl | 133 °C
17 | O=C1CCc2c(F)cc(F)cc2C1 | 46 °C
18 | Cn1cc2c(n1)SSSSS2 | 94 to 102 °C
19 | O=C1OCCN1N=C1CCOc2ccc([N+](=O)[O-])cc21 | 168 to 170 °C
20 | CN1CCN(c2cc(N)ccc2F)CC1 | 155 to 156 °C
21 | CCOC(=O)C=Cc1cn(CCCC2(C)OCCO2)c2ccccc12 | 61 to 62 °C
22 | NC(=O)c1c(I)cc(I)c(C(N)=O)c1I | 245 to 248 °C
23 | CCCc1c(OCCCCCC(=O)c2cc(C)c(O)c(O)c2C)ccc(C(=O)O)c1O | 121 to 125 °C

Row | Compound | melting point
24 | N#Cc1nn(-c2c(Cl)cc(C(F)(F)F)cc2Cl)cc1C(=O)C(F)(F)C(F)(F)F | 120 °C
25 | Nc1cc(F)c(Cl)c(F)c1N | 77 to 78 °C
26 | O=S1(=O)c2cccc3cccc(c23)N1CCCN1CCC(c2ccccc2)(c2ccccc2)CC1 | 168 °C
27 | CC(CCCC(C(=O)O)C(=O)O)C1CC=C2C3=C(CCC21C)C1(C)CCC(O)C(C)(C)C1CC3 (stereo not drawn) | 188 to 190 °C
28 | CCOC(=O)c1cccc2ncc(CN(C)C)n12 | 117 to 118 °C
29 | CCNC1=NS(=O)(=O)c2cc(F)c(F)cc2N1 | 246 to 252 °C
30 | COC(=O)c1ccc(N2CCC(c3ccc4c(c3)C(C)(C)CCC4(C)C)=N2)cc1 | 276 to 278 °C
31 | COc1c(N)cc(C2(C)CC2)cc1NS(C)(=O)=O | 144 to 146 °C
32 | CCCS(=O)(=O)c1nc2cc(-n3nc(C)n(C)c3=O)c(F)cc2s1 | 196 to 198 °C
33 | C[C@@H]1O[C@](C#Cc2ccoc2)(C(F)(F)F)c2cc(Cl)ccc2NC1=O (relative stereo) | 214 to 215 °C
34 | C[Si](C)(C)N1CCCCCN([Si](C)(C)C)CCN([Si](C)(C)C)CC1 | 78 to 86.5 °C
35 | COc1nc(C)nc(NC(=O)NS(=O)(=O)c2c(C3=NOCCO3)csc2C)n1 | 200 °C
36 | CCCCCC(CCCCCO)NCc1cc2cc3c(cc2c2cc(OC)ccc12)OCO3 (stereo not drawn) | 122 to 124 °C
37 | CCCNC(=S)NS(=O)(=O)c1cc2c(cc1OC)OCCC2CNC(=O)c1cc(Cl)ccc1OC (stereo not drawn) | 183 to 184 °C
38 | C=C(C)C1CCC2(CO)CCC3(C)C(CCC4C5(C)CCC(O)C(C)(CO)C5CCC43C)C12 (stereo not drawn) | 256 to 260 °C
39 | CCOC(=O)c1[nH]cnc1CC | 170 to 172 °C
40 | Cc1ccc(C(=O)C2=C(O)C(=O)N(c3ccc(N(C)C)nn3)C2c2ccc(C(C)C)cc2)cc1 (stereo not drawn) | 281 °C
41 | Cc1cc(-n2cncn2)c2cccc(OCc3c(Cl)ccc(S(=O)(=O)N4CCC[C@H]4C(=O)NCC4CCN(CC(=O)OC(C)(C)C)CC4)c3Cl)c2n1 | 50 °C
42 | COC(=O)c1ccc2nc(CC(C)C)c(CNC(=O)OC(C)(C)C)c(-c3ccc(C)cc3)c2c1 | 192 to 194 °C
43 | COc1cc(OC)nc(NC(=O)NS(=O)(=O)c2ncccc2OS(=O)(=O)N(C)C)n1 | 155 to 157 °C
44 | CCOC(=O)c1cn(CCF)c2nc(N3CCC(N(C)C(C)=O)C3)c(F)cc2c1=O (stereo not drawn) | 227 to 229 °C
45 | Cc1nn(C)c2cc(-c3ccc(F)cc3)nc(-c3ccc(S(C)(=O)=O)cc3)c12 | 228 to 230 °C

Further lines, results first:

Row | melting point | Compound
46 | 265 to 268 °C | Cc1cc(-c2ccc(F)cc2)nc(O)n1
47 | 91 to 94 °C | CC(=O)SC(CC(=O)c1ccc(Oc2ccc(Cl)cc2)cc1)C(=O)O (stereo not drawn)
48 | 241 °C | Cc1cc(C(=O)O)c2cccc(OCc3ccccc3)c2n1
49 | 197 to 198 °C | O=C(O)c1ccccc1N1CCN(c2cccc(C(F)(F)F)c2)C1=O
50 | 194 to 195 °C | O=C(CCC1c2ccccc2-c2ccccc21)N[C@@H](Cc1ccccc1)C(=O)O
51 | 146 to 148 °C | COc1ccc2c(c1)C(=O)C(Br)=C(Br)C2=O
52 | 63 to 66 °C | O=C1C=CC(O)(c2nc3ccccc3s2)C=C1
53 | 168 °C | COc1ccccc1CNC(=O)c1ccc2nc(N[C@@H]3CCc4ccccc43)ccc2c1
54 | 55 °C | CCCCCC1C=CC(c2ccc(OC)cc2)=CC1 (stereo not drawn)
55 | 183 to 185 °C | COc1ccc(C=CC(=O)NO)cc1OC
56 | 239 to 243 °C | CC(=O)Nc1cccc2c1CN(c1ccc3c(ccn3C)c1)C2=O
57 | 131 to 133 °C | c1ccc2c(c1)c1ccccc1n2C1CCCCO1 (stereo not drawn)
58 | 75 to 77 °C | COc1cccc(NC(=O)c2ccccc2N)c1
59 | 90 to 93 °C | Fc1ccc(-c2cc(Cl)c3ccccc3n2)cc1
60 | 153 to 156 °C | CCOC(=O)CNc1cnc(-c2ccc(OCc3ccccc3)c(C34CC5CC(CC(C5)C3)C4)c2)nc1
61 | 207 to 209 °C | Nc1ccc(S(=O)(=O)c2cccc3cnccc23)cc1
62 | 136 to 141 °C | N#CCSc1nc(Cl)cc(-c2ccccc2)n1
63 | 139 to 140 °C | COCOc1ccccc1-c1cc(-c2cccc(CN=[N+]=[N-])c2)c(C#N)c(NC(=O)c2cccs2)n1
64 | 210 to 211 °C | CCCCc1nc(C)n2[nH]c(=O)nc2c1Cc1ccc(-c2ccccc2C(=O)O)cc1
65 | 132 to 134 °C | CC(=O)c1cc(N(C)C)ccc1NC(=O)c1ccccc1OCc1ccccc1
66 | 106 to 108 °C | O=C(CCCCCNC(=O)[C@H](Cc1c[nH]c2ccccc12)NC(=O)CCCc1ccccc1)NO
67 | 181 to 183 °C | O=C(Cc1ccccc1)NC1C(=O)N2CC(C(=O)OCc3ccc([N+](=O)[O-])cc3)SC12 (stereo not drawn)
68 | 81 to 83 °C | N#CCc1ccc(OCCc2coc(-c3ccccc3)n2)cc1
69 | 170 to 171 °C | COC(=O)C[C@H]1S[C@H](c2cccc(OC)c2OC)c2cc(Cl)ccc2N(CC(C)(C)C)C1=O
70 | 120 °C | CCOC(=O)C1CCN(C(=O)COc2cc(-c3ccccc3)nc3ccccc23)CC1
71 | 244 to 246 °C | COc1cc2c3c4c(c(-c5ccccc5)cc3n(C)c2cc1OS(=O)(=O)C(F)(F)F)C(=O)NC4=O
72 | 133 °C | COc1cccc2c1CCc1ccn(CCNC(C)=O)c1-2

Row | melting point | Compound
73 | 129 to 131 °C | CCC(CC)N(O)C(=O)Nc1ccc(Br)cc1
74 | 158 °C | Cc1ccc2nc(-c3ccccc3)cc(OCC(=O)N3CCOCC3)c2c1
75 | 186 °C | O=C(O)Cc1nn(Cc2ccc(Br)c(Cl)c2)c(=O)c2ccccc12
76 | 235 to 239 °C | COc1ccc(-c2[nH]c(-c3ccc(NCCC(C)C)cc3)nc2C(=O)Nc2nccs2)cc1
77 | 196 to 197 °C | O=Cc1cn(-c2ccccc2)nc1O
78 | 154 to 156 °C | CC(=O)Nc1ccc(OCCCN2C(=O)c3ccccc3C2=O)cc1
79 | 164 to 167 °C | Cn1cc(-c2cccc(Cl)c2)c(=O)c(-c2cccc(Cl)c2)c1
80 | 111 to 115 °C | CCc1nc2c(OCc3ccccc3)cc(Br)cc2n1C
81 | 165 to 167 °C | CCOC(=O)c1cnc2n(c1=O)CC(C)CC2=NNc1ccccc1 (stereo not drawn)
82 | 161 to 163 °C | O=C(O)Cc1ccc(C2CCCCC2)c2ccccc12
83 | 102 to 103 °C | Cc1ccc2c(c1)C(C)(O)c1ccccc1C=C2 (stereo not drawn)
84 | 247 °C | ON=C(c1ccccc1)c1nsc2nc3ccccc3n12
85 | 112 to 115 °C | CCOC(=O)c1cccc2c1Nc1ccc(C(=O)c3ccccc3)cc1N2C(=O)OC
86 | 95 to 97 °C | CCCCc1nc2ccccn2c(=O)c1-c1ccc(N)cc1
87 | 146 to 147 °C | CCCCCC(CC(=O)Nc1cc(C(=O)O)ccc1C(C)(C)C)c1cccc(OC)c1OC (stereo not drawn)
88 | 185 to 186 °C | CC(c1ccc(-c2ccc(OCc3nc4ccccc4s3)cc2)c(F)c1)N(O)C(N)=O (stereo not drawn)
89 | 196 °C | CC(=O)NC(=O)Nc1ccc(OS(=O)(=O)c2cccc(C(F)(F)F)c2)cc1[N+](=O)[O-]
90 | 154 to 155 °C | COc1cc(CCCC2SC(=O)NC2=O)ccc1OCc1coc(/C=C/c2ccccc2)n1 (stereo not drawn)
91 | 129 to 131 °C | COc1ccc2nc3ccc(C(=O)OCOC(=O)C(C)(C)C)cn3c(=O)c2c1
92 | 259 °C | COc1ccc(C(=O)Nc2ccncc2)c2c1oc1ccc(C(F)(F)F)cc12
93 | 239 to 241 °C | O=C(O)CCC(=O)c1ccc(NC(=O)c2cccc(F)c2)cc1
94 | 160 to 161 °C | CCCCCCOc1ccc(NC(=O)c2cn(-c3ccc(F)cc3)nc2C)cc1C#N
95 | 225 to 226 °C | NC(=O)c1ccccc1N1CCc2cc(Cl)cc([N+](=O)[O-])c21
96 | 149 to 150 °C | CCOC(=O)Cc1ccc(NC(=O)C(CO)NS(=O)(=O)c2ccc(Br)cc2)cc1 (racemic)
97 | 123 to 127 °C | CCc1c(-c2ccc(OCc3ccccc3)cc2)c2ccc3c(N)ccc1n32
98 | 131 to 133 °C | CN(Cc1ccc2[nH]cc(CCN3C(=O)c4ccccc4C3=O)c2c1)S(=O)(=O)C(F)(F)F
